Data as given in ChEMBL document CHEMBL1641539 (Bioorg Med Chem Lett, 2011).

Experiments:
[1] = system: Epidermal growth factor receptor (Homo sapiens), P00533 [L858R]; assay: Inhibition of human EGFR L858R mutant at 10 uM after 60 mins by TR-FRET assay; assay type: protein assay; conditions: values are per cent of control
[2] = biological target: Ephrin type-A receptor 5 (Homo sapiens) (UniProt P54756); assay: Inhibition of human EphA5 at 10 uM after 60 mins by TR-FRET assay; conditions: values are per cent of control
[3] = biological target: Mitogen-activated protein kinase 1 (Homo sapiens, UniProt P28482); assay: Inhibition of human MAPK2 at 10 uM after 60 mins by TR-FRET assay; conditions: values are per cent of control
[4] = biological target: Mitogen-activated protein kinase 11 (Homo sapiens) (UniProt Q15759); assay: Inhibition of human SAPK2b at 10 uM after 60 mins by TR-FRET assay; conditions: values are per cent of control
[5] = biological target: Focal adhesion kinase 1 (Homo sapiens) (UniProt Q05397); assay: Inhibition of human FAK at 10 uM after 60 mins by TR-FRET assay; values are per cent of control
[6] = biological target: Tyrosine-protein kinase Fgr (Homo sapiens) (UniProt P09769); assay: Inhibition of human Fgr at 10 uM after 60 mins by TR-FRET assay; values are per cent of control
[7] = biological target: Mitogen-activated protein kinase kinase kinase kinase 2 (Homo sapiens) (UniProt Q12851); assay: Inhibition of human GCK at 10 uM after 60 mins by TR-FRET assay; values are per cent of control
[8] = biological target: Tyrosine-protein kinase ABL2 (Homo sapiens) (UniProt P42684); assay: Inhibition of human Arg at 10 uM after 60 mins by TR-FRET assay; values are per cent of control
[9] = biological target: Tyrosine-protein kinase CSK (Homo sapiens) (UniProt P41240); assay: Inhibition of human CSK at 10 uM after 60 mins by TR-FRET assay; values are per cent of control
[10] = biological target: Receptor-type tyrosine-protein kinase FLT3 (Homo sapiens) (UniProt P36888); assay: Inhibition of human Flt3 at 10 uM after 60 mins by TR-FRET assay; values are per cent of control
[11] = biological target: Rhodopsin kinase GRK7 (Homo sapiens) (UniProt Q8WTQ7); assay: Inhibition of human GRK7 at 10 uM after 60 mins by TR-FRET assay; values are per cent of control
[12] = biological target: Serine/threonine-protein kinase Nek2 (Homo sapiens) (UniProt P51955); assay: Inhibition of human NEK2 at 10 uM after 60 mins by TR-FRET assay; values are per cent of control
[13] = biological target: Serine/threonine-protein kinase Nek3 (Homo sapiens) (UniProt P51956); assay: Inhibition of human NEK3 at 10 uM after 60 mins by TR-FRET assay; values are per cent of control
[14] = biological target: Serine/threonine-protein kinase Nek6 (Homo sapiens) (UniProt Q9HC98); assay: Inhibition of human NEK6 at 10 uM after 60 mins by TR-FRET assay; values are per cent of control
[15] = biological target: Discoidin domain-containing receptor 2 (Homo sapiens) (UniProt Q16832); assay: Inhibition of human DDR2 at 10 uM after 60 mins by TR-FRET assay; values are per cent of control
[16] = biological target: Serine/threonine-protein kinase PAK 3 (Homo sapiens) (UniProt O75914); assay: Inhibition of human PAK3 at 10 uM after 60 mins by TR-FRET assay; values are per cent of control
[17] = biological target: Ephrin type-B receptor 3 (Homo sapiens) (UniProt P54753); assay: Inhibition of human EphB3 at 10 uM after 60 mins by TR-FRET assay; values are per cent of control
[18] = biological target: Serine/threonine-protein kinase BRSK2 (Homo sapiens) (UniProt Q8IWQ3); assay: Inhibition of human BrSK2 at 10 uM after 60 mins by TR-FRET assay; values are per cent of control
[19] = biological target: Protein kinase C eta type (Homo sapiens) (UniProt P24723); assay: Inhibition of human PKCeta at 10 uM after 60 mins by TR-FRET assay; values are per cent of control
[20] = biological target: T1, Aurora kinase A (Homo sapiens) (UniProt O14965); assay: Inhibition of human Aurora-A at 10 uM after 60 mins by TR-FRET assay; values are per cent of control
T1 sequence (whole entry): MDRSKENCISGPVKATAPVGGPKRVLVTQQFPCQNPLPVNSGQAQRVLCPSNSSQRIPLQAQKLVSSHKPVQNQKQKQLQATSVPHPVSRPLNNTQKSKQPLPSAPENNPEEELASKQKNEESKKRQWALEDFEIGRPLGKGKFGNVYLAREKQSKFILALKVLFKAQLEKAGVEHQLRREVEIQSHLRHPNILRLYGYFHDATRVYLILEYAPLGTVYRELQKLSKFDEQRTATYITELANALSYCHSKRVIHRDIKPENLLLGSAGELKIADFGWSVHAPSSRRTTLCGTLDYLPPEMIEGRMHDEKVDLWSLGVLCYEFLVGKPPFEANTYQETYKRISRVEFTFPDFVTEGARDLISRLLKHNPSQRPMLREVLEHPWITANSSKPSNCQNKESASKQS

[21] = biological target: Protein kinase C beta type (Homo sapiens) (UniProt P05771); assay: Inhibition of human PKCbeta1 at 10 uM after 60 mins by TR-FRET assay; values are per cent of control
[22] = biological target: Casein kinase I isoform gamma-1 (Homo sapiens) (UniProt Q9HCP0); assay: Inhibition of human CK1gamma1 at 10 uM after 60 mins by TR-FRET assay; values are per cent of control
[23] = biological target: Casein kinase I isoform gamma-2 (Homo sapiens) (UniProt P78368); assay: Inhibition of human CK1gamma2 at 10 uM after 60 mins by TR-FRET assay; values are per cent of control
[24] = biological target: cGMP-dependent protein kinase 1 (Homo sapiens) (UniProt Q13976); assay: Inhibition of human PKG1alpha at 10 uM after 60 mins by TR-FRET assay; values are per cent of control
[25] = system: Proto-oncogene tyrosine-protein kinase Src (Homo sapiens), P12931 [T341M]; assay: Inhibition of human Src T341M mutant at 10 uM after 60 mins by TR-FRET assay; values are per cent of control
Chain of Proto-oncogene tyrosine-protein kinase Src (Homo sapiens), P12931 [T341M] (P12931 whole entry T341M, looked up): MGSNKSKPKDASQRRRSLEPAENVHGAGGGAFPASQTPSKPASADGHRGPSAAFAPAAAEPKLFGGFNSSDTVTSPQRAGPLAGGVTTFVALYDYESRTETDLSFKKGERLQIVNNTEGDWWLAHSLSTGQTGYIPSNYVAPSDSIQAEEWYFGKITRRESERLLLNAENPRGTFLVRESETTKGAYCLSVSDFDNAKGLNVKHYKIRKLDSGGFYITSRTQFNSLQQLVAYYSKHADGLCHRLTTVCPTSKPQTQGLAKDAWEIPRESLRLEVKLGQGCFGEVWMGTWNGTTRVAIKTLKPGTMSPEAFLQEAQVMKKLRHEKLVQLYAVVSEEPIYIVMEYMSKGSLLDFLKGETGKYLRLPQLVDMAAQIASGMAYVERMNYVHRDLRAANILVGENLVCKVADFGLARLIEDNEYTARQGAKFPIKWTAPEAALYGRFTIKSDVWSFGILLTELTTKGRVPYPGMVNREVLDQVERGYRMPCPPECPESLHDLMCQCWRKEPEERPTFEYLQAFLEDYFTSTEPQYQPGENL

Chain of Serine/threonine-protein kinase Nek6 (Homo sapiens) (Q9HC98 whole entry, the tested form may be a part): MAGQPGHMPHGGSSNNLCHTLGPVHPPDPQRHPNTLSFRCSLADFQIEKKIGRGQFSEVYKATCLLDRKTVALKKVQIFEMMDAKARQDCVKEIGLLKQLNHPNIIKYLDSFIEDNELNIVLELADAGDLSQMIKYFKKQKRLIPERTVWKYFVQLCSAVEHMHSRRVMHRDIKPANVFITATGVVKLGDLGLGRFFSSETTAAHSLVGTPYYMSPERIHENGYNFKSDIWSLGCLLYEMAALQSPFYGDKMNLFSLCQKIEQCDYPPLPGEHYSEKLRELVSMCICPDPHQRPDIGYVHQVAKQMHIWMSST
Chain of Ephrin type-B receptor 3 (Homo sapiens) (P54753 whole entry): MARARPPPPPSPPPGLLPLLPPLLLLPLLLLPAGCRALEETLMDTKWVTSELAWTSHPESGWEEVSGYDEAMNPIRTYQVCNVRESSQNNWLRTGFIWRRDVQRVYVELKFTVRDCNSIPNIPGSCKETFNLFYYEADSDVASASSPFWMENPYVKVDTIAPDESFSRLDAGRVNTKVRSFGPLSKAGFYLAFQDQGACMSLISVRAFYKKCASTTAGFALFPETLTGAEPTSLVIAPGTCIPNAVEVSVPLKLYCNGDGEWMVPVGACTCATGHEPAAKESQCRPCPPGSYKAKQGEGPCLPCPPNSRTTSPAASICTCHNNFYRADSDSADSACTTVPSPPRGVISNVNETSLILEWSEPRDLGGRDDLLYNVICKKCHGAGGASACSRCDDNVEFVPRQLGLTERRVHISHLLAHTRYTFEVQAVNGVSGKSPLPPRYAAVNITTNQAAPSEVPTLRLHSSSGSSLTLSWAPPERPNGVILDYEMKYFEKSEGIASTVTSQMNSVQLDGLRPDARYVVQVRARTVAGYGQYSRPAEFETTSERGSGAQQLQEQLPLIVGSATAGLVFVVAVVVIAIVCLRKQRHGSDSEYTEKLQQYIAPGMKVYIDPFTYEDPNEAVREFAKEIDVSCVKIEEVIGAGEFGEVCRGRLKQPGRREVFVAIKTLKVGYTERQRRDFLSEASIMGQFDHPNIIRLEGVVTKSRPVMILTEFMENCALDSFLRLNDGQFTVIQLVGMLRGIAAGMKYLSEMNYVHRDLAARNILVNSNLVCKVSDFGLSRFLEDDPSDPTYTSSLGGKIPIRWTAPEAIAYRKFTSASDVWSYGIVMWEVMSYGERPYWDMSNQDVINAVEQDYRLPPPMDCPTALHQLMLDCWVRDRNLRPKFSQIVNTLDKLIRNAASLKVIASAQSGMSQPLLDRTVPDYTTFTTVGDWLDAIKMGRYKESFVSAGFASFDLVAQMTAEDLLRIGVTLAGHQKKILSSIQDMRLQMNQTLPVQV
Chain of Serine/threonine-protein kinase BRSK2 (Homo sapiens) (Q8IWQ3 whole entry): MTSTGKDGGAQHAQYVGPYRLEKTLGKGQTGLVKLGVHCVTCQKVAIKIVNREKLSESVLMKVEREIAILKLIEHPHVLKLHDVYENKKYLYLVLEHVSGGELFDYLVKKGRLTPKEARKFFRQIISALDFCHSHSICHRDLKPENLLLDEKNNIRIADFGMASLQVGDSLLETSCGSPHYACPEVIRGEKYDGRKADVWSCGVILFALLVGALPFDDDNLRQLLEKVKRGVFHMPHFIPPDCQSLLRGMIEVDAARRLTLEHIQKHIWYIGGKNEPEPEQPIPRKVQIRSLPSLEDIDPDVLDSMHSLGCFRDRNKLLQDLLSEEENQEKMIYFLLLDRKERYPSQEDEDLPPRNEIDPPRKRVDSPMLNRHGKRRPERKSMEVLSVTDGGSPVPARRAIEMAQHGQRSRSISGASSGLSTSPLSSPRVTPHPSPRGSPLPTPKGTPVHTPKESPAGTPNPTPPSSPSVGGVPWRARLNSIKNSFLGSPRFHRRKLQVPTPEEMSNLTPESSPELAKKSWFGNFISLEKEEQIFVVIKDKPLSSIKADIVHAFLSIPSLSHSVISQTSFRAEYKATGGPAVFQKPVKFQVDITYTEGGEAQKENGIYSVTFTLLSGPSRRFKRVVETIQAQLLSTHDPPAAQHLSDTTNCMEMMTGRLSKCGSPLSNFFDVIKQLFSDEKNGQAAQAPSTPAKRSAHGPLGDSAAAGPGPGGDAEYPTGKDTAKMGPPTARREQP
Chain of Serine/threonine-protein kinase Nek3 (Homo sapiens) (P51956 whole entry): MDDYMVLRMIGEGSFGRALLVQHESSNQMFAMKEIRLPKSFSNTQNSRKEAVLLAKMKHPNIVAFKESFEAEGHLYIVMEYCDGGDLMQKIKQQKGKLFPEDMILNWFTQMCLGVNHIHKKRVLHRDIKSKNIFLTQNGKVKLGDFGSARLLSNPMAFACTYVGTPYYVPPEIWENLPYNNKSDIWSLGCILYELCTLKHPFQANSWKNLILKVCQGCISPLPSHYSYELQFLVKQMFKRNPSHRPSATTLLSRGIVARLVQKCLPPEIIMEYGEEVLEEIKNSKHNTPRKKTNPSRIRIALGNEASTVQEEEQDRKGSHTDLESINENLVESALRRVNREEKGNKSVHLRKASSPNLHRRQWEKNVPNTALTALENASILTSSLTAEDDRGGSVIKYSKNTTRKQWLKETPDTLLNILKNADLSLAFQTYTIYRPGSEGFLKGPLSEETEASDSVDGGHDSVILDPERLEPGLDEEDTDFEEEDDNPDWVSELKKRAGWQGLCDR
Chain of Rhodopsin kinase GRK7 (Homo sapiens) (Q8WTQ7 whole entry): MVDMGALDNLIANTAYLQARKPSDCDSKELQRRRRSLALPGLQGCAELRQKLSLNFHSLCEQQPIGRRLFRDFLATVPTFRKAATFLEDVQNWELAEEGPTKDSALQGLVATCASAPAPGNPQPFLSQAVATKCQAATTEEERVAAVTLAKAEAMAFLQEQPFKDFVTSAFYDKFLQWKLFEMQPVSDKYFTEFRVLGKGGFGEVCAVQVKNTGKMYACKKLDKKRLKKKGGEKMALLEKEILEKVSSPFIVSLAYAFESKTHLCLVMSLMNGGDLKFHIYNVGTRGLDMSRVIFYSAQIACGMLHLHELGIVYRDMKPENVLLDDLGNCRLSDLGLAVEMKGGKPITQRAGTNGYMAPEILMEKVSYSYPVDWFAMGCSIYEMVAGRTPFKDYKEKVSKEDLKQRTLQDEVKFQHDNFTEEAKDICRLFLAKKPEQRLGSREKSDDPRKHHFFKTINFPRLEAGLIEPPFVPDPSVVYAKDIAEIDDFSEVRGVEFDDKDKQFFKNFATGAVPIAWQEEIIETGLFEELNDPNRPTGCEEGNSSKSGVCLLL
Chain of Protein kinase C eta type (Homo sapiens) (P24723 whole entry): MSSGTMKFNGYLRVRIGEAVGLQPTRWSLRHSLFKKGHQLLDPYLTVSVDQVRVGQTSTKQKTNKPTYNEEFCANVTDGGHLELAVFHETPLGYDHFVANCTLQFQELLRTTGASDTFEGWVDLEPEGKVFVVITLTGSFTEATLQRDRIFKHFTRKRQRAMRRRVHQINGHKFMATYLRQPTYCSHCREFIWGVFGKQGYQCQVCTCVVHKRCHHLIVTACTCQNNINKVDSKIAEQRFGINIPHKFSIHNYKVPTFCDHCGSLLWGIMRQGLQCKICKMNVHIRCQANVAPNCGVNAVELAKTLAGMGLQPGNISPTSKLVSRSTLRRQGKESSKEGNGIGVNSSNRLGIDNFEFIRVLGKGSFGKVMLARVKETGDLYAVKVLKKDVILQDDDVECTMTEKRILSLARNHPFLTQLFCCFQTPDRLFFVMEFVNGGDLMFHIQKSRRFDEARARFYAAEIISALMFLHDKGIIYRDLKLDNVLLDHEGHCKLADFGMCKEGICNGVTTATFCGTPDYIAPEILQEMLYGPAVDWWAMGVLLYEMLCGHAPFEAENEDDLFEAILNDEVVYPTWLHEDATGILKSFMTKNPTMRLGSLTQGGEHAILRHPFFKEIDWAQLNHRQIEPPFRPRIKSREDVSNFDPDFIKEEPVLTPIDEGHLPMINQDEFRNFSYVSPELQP
Chain of Tyrosine-protein kinase Fgr (Homo sapiens) (P09769 2-529 limits assumed): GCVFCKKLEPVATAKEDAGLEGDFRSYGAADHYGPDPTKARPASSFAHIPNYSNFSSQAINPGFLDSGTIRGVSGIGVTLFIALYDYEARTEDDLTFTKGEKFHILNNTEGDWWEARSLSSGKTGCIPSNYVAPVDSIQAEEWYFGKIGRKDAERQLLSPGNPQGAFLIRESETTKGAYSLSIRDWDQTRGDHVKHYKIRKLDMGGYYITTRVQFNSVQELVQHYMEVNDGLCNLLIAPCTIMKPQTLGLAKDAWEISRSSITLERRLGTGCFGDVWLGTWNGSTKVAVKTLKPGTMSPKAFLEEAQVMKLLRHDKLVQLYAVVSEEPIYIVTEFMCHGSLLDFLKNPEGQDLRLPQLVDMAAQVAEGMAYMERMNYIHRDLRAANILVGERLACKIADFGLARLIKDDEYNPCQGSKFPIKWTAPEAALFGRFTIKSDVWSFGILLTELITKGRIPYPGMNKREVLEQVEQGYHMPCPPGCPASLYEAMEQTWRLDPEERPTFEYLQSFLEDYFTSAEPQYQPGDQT

residual activity [1]: 75%
residual activity [2]: 110%
residual activity [3]: 114%
residual activity [4]: 90%
residual activity [5]: 106%
residual activity [6]: 99%
residual activity [7]: 103%
residual activity [8]: 109%
residual activity [9]: 100%
residual activity [10]: 119%
residual activity [11]: 124%
residual activity [12]: 110%
residual activity [13]: 118%
residual activity [14]: 116%
residual activity [15]: 94%
residual activity [16]: 99%
residual activity [17]: 102%
residual activity [18]: 103%
residual activity [19]: 107%
residual activity [20]: 99%
residual activity [21]: 109%
residual activity [22]: 105%
residual activity [23]: 99%
residual activity [24]: 108%
residual activity [25]: 113%
SMILES: S=c1[nH]nc(-c2ccncc2)n1-c1ccc2ccccc2c1
